No end group written: not given here.
How the values were obtained:
[1] = Solubility of sVpr peptides in aqueous buffer (observation during SPR sample preparation); assay type: physicochemical; conditions: for Solubility in SPR running buffer: HBS-P buffer pH 7.4, dissolved at 25-200 μM instead of 50-400 μM
Description: (§1) SPR measurements were performed at 25°C on a Biacore T100 instrument (Biacore AB, Uppsala, Sweden) equipped with a CM5 research-grade sensor chip. CypA was immobilized in FC 2 and FC 4 to 180 and 918 RU (response units) respectively, using standard amine-coupling chemistry in two flow cells. FC 1 and FC 3 were treated according to FC 2 and FC 4 except for CypA immobilisation and functioned as reference cells. The synthetic Vpr peptides sVpr^1-20, sVpr^21-40, sVpr^25-40, sVpr^30-40, sVpr^32-38 and sVpr^33-37 were dissolved at four concentrations ranging from 50 to 400 μM in the running buffer (HBS-P buffer pH 7.4). […] The samples were injected over the flow cells at a flow rate of 30 μl/min. Data were collected at 2.5 Hz during the 60 s association and 120 s dissociation phase, and were automatically corrected for bulk buffer effects and unspecific binding of Vpr peptides to the chip matrix.

CypA [2] = target: T1, CypA (Homo sapiens, UniProt P62937); test: biochemical; assay type: binding; conditions: for kon: pH 7.4, read-out: ka1 (association rate constant), two state reaction model; for koff: pH 7.4, read-out: kd1 (dissociation rate constant), two state reaction model
T1 construct: made in house; host or cells: E. coli BL21(DE3)
T1 sequence (P62937 whole entry): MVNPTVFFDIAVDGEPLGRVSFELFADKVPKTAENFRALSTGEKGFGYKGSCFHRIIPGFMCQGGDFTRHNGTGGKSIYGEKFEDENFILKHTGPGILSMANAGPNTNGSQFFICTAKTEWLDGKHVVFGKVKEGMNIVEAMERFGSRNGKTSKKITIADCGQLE
Description: The two-state binding model, also called the conformational change model, is based on a 1:1 binding of an analyte to the immobilized ligand followed by a conformational change in the complex. This model should be regarded as indicative, rather than as direct evidence, for a conformational change upon binding. […] From the two-state binding model the association rate (ka1), dissociation rate (kd1), forward rate (ka2) and backward rate (kd2) constants were calculated, and subsequently the magnitude of the dissociation constants (KD) could be calculated ([…] (Table 1).
as §1
Affinity, association and dissociation rate constants were obtained from sensograms by the Biacore T100 evaluation software version 2.0.1 in accordance with the global curve fit model. Sensorgram data for the four different concentrations were fitted to several binding models including 1:1 (Langmuir) binding model (A+B ↔ AB), two-state reaction (conformational change) model (A+B ↔ AB ↔ AB*) and heterogeneous ligand model (interaction one: A+B1 ↔ AB1; interaction two: A+B2 ↔ AB2). Kinetic constants were calculated for the best fitted model.

CypA [3] = target: T1, CypA; test: 2D 1H NOESY/ROESY NMR exchange spectroscopy of CypA prolyl cis/trans isomerase activity on sVpr peptides and its inhibition by cyclosporine A; assay type: biochemical; conditions: excess cyclosporine A (0.1 mg in 5 μl DMSO-d6) added after CypA
Description: After acquisition of 1 D ^1H and 2D ^1H TOCSY, NOESY and ROESY NMR spectra of pure sVpr^1-20 and sVpr^21-40, 50-100 μl 0.11 mM CypA dissolved in aqueous Tris buffer at pH 7 was added to the individual peptide solutions, followed by acquisition of identical series of NMR spectra (1 D ^1H and 2D ^1H TOCSY, NOESY and ROESY) to those of the pure peptides. Exchange peaks occurring in the spectra after addition of CypA were identified by supposition of analogous NOESY and/or ROESY spectra prior to and after addition of CypA using Bruker Topspin 1.3 software.
The catalytic prolyl cis/trans isomerase interactions of CypA with sVpr^1-20 and sVpr^21-40 was inhibited by addition of excessive amounts of cyclosporine A dissolved in 5 μl deuterated dimethylsulfoxide (DMSO-d6).

HIV = conditions: specific inhibitors of the prolyl cis/trans isomerase activity of CypA; cited from earlier work
Excerpt: The interaction of HIV-1 Vpr with CypA is known to occur in vitro and in vivo [9-11]. […] Nonetheless, spe ...

Molecule	kon (CypA [2]) [M⁻¹ s⁻¹]	koff (CypA [2]) [s⁻¹]	also measured
CC[C@H](C)[C@H](NC(=O)[C@H](CCCNC(=N)N)NC(=O)[C@@H]1CCCN1C(=O)[C@H](Cc1ccccc1)NC(=O)[C@H](Cc1c[nH]cn1)NC(=O)[C@H](CCCNC(=N)N)NC(=O)[C@@H](NC(=O)[C@H](C)NC(=O)[C@H](CCC(=O)O)NC(=O)[C@H](CO)NC(=O)[C@H](CCCCN)NC(=O)[C@H](CC(C)C)NC(=O)[C@H](CCC(=O)O)NC(=O)[C@H](CCC(=O)O)NC(=O)[C@H](CC(C)C)NC(=O)[C@H](CC(C)C)NC(=O)[C@H](CCC(=O)O)NC(=O)[C@H](CC(C)C)NC(=O)[C@@H](NC(=O)[C@@H](NC(=O)[C@H](Cc1c[nH]c2ccccc12)NC(=O)[C@H](CCC(=O)O)NC(=O)[C@H](CC(N)=O)NC(=O)[C@H](Cc1ccc(O)cc1)NC(=O)[C@H](CC(N)=O)NC(=O)[C@H](CCC(=O)O)NC(=O)[C@H](CCCNC(=N)N)NC(=O)[C@H](CCC(N)=O)NC(=O)[C@H](CC(N)=O)NC(=O)CNC(=O)[C@H](CCC(N)=O)NC(=O)[C@H](CC(=O)O)NC(=O)[C@H](CCC(=O)O)NC(=O)[C@H](CC(N)=O)NC(=O)[C@H](C)NC(=O)[C@H](CCC(N)=O)NC(=O)[C@H](CCC(=O)O)NC(=O)[C@@H](N)CCSC)[C@@H](C)O)[C@@H](C)O)C(C)C)C(=O)N[C@@H](Cc1c[nH]c2ccccc12)C(=O)N[C@@H](CC(C)C)C(=O)N[C@@H](Cc1c[nH]cn1)C(=O)O [sVpr^1-40 P5,10,14 N]	46	0.56	Solubility in SPR running buffer [1]: restricted solubility; Solubility in aqueous buffer solution ([1]; aqueous buffer solution at pH 7, offered as possible reason for unreliable KD): relatively poor solubility
CC[C@H](C)[C@H](NC(=O)[C@H](CCCNC(=N)N)NC(=O)[C@@H]1CCCN1C(=O)[C@H](Cc1ccccc1)NC(=O)[C@H](Cc1c[nH]cn1)NC(=O)[C@H](CCCNC(=N)N)NC(=O)[C@@H](NC(=O)[C@H](C)NC(=O)[C@H](CCC(=O)O)NC(=O)[C@H](CO)NC(=O)[C@H](CCCCN)NC(=O)[C@H](CC(C)C)NC(=O)[C@H](CCC(=O)O)NC(=O)[C@H](CCC(=O)O)NC(=O)[C@H](CC(C)C)NC(=O)[C@H](CC(C)C)NC(=O)[C@H](CCC(=O)O)NC(=O)[C@H](CC(C)C)NC(=O)[C@@H](NC(=O)[C@@H](NC(=O)[C@H](Cc1c[nH]c2ccccc12)NC(=O)[C@H](CCC(=O)O)NC(=O)[C@H](CC(N)=O)NC(=O)[C@H](Cc1ccc(O)cc1)NC(=O)[C@@H]1CCCN1C(=O)[C@H](CCC(=O)O)NC(=O)[C@H](CCCNC(=N)N)NC(=O)[C@H](CCC(N)=O)NC(=O)[C@@H]1CCCN1C(=O)CNC(=O)[C@H](CCC(N)=O)NC(=O)[C@H](CC(=O)O)NC(=O)[C@H](CCC(=O)O)NC(=O)[C@@H]1CCCN1C(=O)[C@H](C)NC(=O)[C@H](CCC(N)=O)NC(=O)[C@H](CCC(=O)O)NC(=O)[C@@H](N)CCSC)[C@@H](C)O)[C@@H](C)O)C(C)C)C(=O)N[C@@H](Cc1c[nH]c2ccccc12)C(=O)N[C@@H](CC(C)C)C(=O)N[C@@H](Cc1c[nH]cn1)C(=O)O [sVpr^1-40]	752	0.37	Solubility in SPR running buffer [1]: restricted solubility; Kd (CypA [2]): 284 µM
CC[C@H](C)[C@H](NC(=O)[C@H](CCCNC(=N)N)NC(=O)[C@@H]1CCCN1C(=O)[C@H](Cc1ccccc1)NC(=O)[C@H](Cc1c[nH]cn1)NC(=O)[C@H](CCCNC(=N)N)NC(=O)[C@@H](NC(=O)[C@H](C)NC(=O)[C@H](CCC(=O)O)NC(=O)[C@H](CO)NC(=O)[C@H](CCCCN)NC(=O)[C@H](CC(C)C)NC(=O)[C@H](CCC(=O)O)NC(=O)[C@H](CCC(=O)O)NC(=O)[C@H](CC(C)C)NC(=O)[C@H](CC(C)C)NC(=O)[C@@H](N)CCC(=O)O)C(C)C)C(=O)N[C@@H](Cc1c[nH]c2ccccc12)C(=O)N[C@@H](CC(C)C)C(=O)N[C@@H](Cc1c[nH]cn1)C(=O)O [sVpr^21-40]	466	0.164	
CC[C@H](C)[C@H](NC(=O)[C@H](CCCNC(=N)N)NC(=O)[C@@H]1CCCN1C(=O)[C@H](Cc1ccccc1)NC(=O)[C@H](Cc1c[nH]cn1)NC(=O)[C@H](CCCNC(=N)N)NC(=O)[C@@H](NC(=O)[C@H](C)NC(=O)[C@H](CCC(=O)O)NC(=O)[C@H](CO)NC(=O)[C@H](CCCCN)NC(=O)[C@H](CC(C)C)NC(=O)[C@@H](N)CCC(=O)O)C(C)C)C(=O)N[C@@H](Cc1c[nH]c2ccccc12)C(=O)N[C@@H](CC(C)C)C(=O)N[C@@H](Cc1c[nH]cn1)C(=O)O [sVpr^25-40]	2000	0.942	
CC[C@H](C)[C@H](NC(=O)[C@H](CCCNC(=N)N)NC(=O)[C@@H]1CCCN1C(=O)[C@H](Cc1ccccc1)NC(=O)[C@H](Cc1c[nH]cn1)NC(=O)[C@H](CCCNC(=N)N)NC(=O)[C@@H](NC(=O)[C@H](C)N)C(C)C)C(=O)N[C@@H](Cc1c[nH]c2ccccc12)C(=O)N[C@@H](CC(C)C)C(=O)N[C@@H](Cc1c[nH]cn1)C(=O)O [sVpr^30-40]	2470	0.527	
HFPRI [sVpr^33-37]	120	0.66	
RHFPRIW [sVpr^32-38]	924	0.67	
cyclosporine A			Inhibition of CypA prolyl cis/trans isomerase activity (exchange crosspeaks after addition of inhibitor) (CypA [3]; substrate sVpr1-20): disappearance of the prolyl cis/trans exchange crosspeaks; Inhibition of CypA prolyl cis/trans isomerase activity (exchange crosspeaks after addition of inhibitor) (CypA [3]; substrate sVpr21-40): prolyl cis/trans exchange crosspeaks disappeared; Inhibition of HIV replication (HIV): inhibit HIV replication
